In PMC4859512, “Polyamino-Isoprenic Derivatives Block Intrinsic Resistance of P. aeruginosa to Doxycycline and Chloramphenicol In Vitro” (PLoS ONE, 2016):
Like-named read-outs stand apart in the source and are kept apart here.

Columns and labels:
[1] = test system: P. aeruginosa PT629 (Mex AB overproducer); test: Antibiotic susceptibility testing (broth micro-dilution MIC), strain PT629; assay type: cell-based, Pseudomonas aeruginosa; conditions: Pseudomonas aeruginosa
Description: (§1) Experiments were performed on the BAC-SCREEN platform of the UMR-MD1, with a Freedom EVO 150 liquid handling system (Tecan, Lyon, France).
(§2) We concluded that compound 3 was the best compound and suitable for a more detailed study. The same experiment was performed using chloramphenicol (4 mg/L) in combination with 3 (10 μM final concentration). Amongst the 20 clinical isolates, the growth of 15 (75%) was impaired, while 5 (25%) were resistant (data not shown). These experiments were performed to study the effect of our compounds on the natural resistance of P. aeruginosa. In addition, we were wondering if compound 3 could also increase susceptibility to other antibiotic families including ß-Lactams, fluoroquinolones and aminoglycosides, that are representative of the main classes of anti-pseudomonal agents. Experiments were performed with the ß-lactams ceftazidime and ticarcillin and ciprofloxacin and amikacin. […] . […] To better characterize compound 3, we first searched for the minimum concentration of compound that allowed killing of bacteria by doxycycline, and PAßN was used as the reference molecule.

[2] = test system: P. aeruginosa PA0-7H (Mex EF overproducer); test: Antibiotic susceptibility testing (broth micro-dilution MIC), strain PA0-7H; assay type: cell-based, Pseudomonas aeruginosa; conditions: Pseudomonas aeruginosa
Description: as §1, §2

P. aeruginosa PA01 (wt) = test: Antibiotic susceptibility testing (broth micro-dilution MIC), strain PA01; assay type: cell-based, Pseudomonas aeruginosa; conditions: for MIC: Pseudomonas aeruginosa
Description: as §1
(§3) The same experiment was performed using chloramphenicol (4 mg/L) in combination with 3 (10 μM final concentration). […] These experiments were performed to study the effect of our compounds on the natural resistance of P. aeruginosa. […] Experiments were performed with the ß-lactams ceftazidime and ticarcillin and ciprofloxacin and amikacin.

[3] = test system: clinical isolates of P. aeruginosa; test: Doxycycline MIC of the clinical isolates (S1 Table); assay type: cell-based; conditions: Pseudomonas aeruginosa
Description: The P. aeruginosa strains used in this study are described in Table 1. In addition, a series of 20 clinical isolates of P. aeruginosa obtained from the Hôpital d’Instruction des Armées Laveran, HIA-Laveran (Marseille, France) were also used in this study (S1 Table). Strains were stored at -80°C in 15% (v/v) glycerol for cryo-protection. Bacteria were routinely maintained on Mueller-Hinton (MH) agar plates and grown in cation-adjusted MH broth (MHBII) at 37°C.
as §1
Isolates Sampling location Sampling date Patient age Doxycycline MIC Main antibiotic resistance
AMK, LVX, OFX, TET, MIN, TGC, CHL, NET, CAR
PA2013-LAV17 Redon drain 15/12/2012 81 32 PIP, PIP/TZP, AZT, CAZ, TIC, TCC, FEP, FOS, TET,
TIC : ticarcillin, TCC : ticarcillin/clavulanic acid, FOS : fosfomycin, TET : tetracycline, MIN, minocycline, TCG, tigecycline, CAR : carbenicillin, PIP :
piperacillin, PIP/TZP : piperacillin/tazobactam, GEN : gentamycin, CAZ : ceftazidime, FEP : cefepime, TOB : tobramycin, IPM : imipenem, CIP :
ciprofloxacin, AMK : amikacin, LVX : levofloxacin, OFX : ofloxacin, NET : netilmicin, STR, streptomycin, MEM : meropenem.

P. aeruginosa PA01 = test: Checkerboard assay with doxycycline; assay type: cell-based, Pseudomonas aeruginosa; conditions: Pseudomonas aeruginosa; PA01, checkerboard plate; read-out: Doxycycline MIC (alone)
Description: Serial two-fold dilutions of antimicrobial agents were mixed together in a microtiter plate. The range of concentration of each drug was twice the MIC, down to the eleventh serial two-fold dilutions below this amount. Doxycycline was serially diluted along the X-axis, and the polyamino-isoprenic compound or PAßN was diluted along the Y-axis as indicated. Each well was inoculated with a bacterial inoculum of 5 x 10^5 CFU/ml, and the plates were incubated at 37°C for 18 h under aerobic conditions. Each plate also contained a row and a column in which a serial dilution of polyamino-isoprenic compound or doxycycline, respectively, was present alone to determine the MIC. The FIC index was calculated as follows: FIC index = FIC A + FIC B, where FIC A is the MIC of drug A in the combination/MIC of drug A alone and FIC B is the MIC of drug B in the combination/MIC of drug B alone. The combination was considered synergistic when the FIC index is ≤0.5, and antagonistic when the FIC index is > 4 [26].

[4] = test system: P. aeruginosa PA01 ERY^R (Mex CD overproducer); test: microbe, parasite or virus in culture; assay type: cell-based, Pseudomonas aeruginosa; conditions: Pseudomonas aeruginosa
Description: as §1, §3

[5] = test system: P. aeruginosa CMZ091 (Mex XY overproducer); test: Antibiotic susceptibility testing (broth micro-dilution MIC), strain CMZ091; assay type: cell-based, Pseudomonas aeruginosa; conditions: Pseudomonas aeruginosa
Description: as §1, §2

[6] = PA01, antibiotic alone (∅), S3 Table, read-out: MIC
[7] = read-out: Minimal Inhibitory Concentration

CC(C)(O/N=C(\C(=O)N[C@@H]1C(=O)N2C(C(=O)[O-])=C(C[n+]3ccccc3)CS[C@H]12)c1csc(N)n1)C(=O)O [Ceftazidime, ceftazidime]
MIC [1]: 8 µg/mL
MIC [2]: 1 µg/mL
MIC (P. aeruginosa PA01 (wt); [6]): 2 µg/mL

C[C@H]1c2cccc(O)c2C(=O)C2=C(O)[C@]3(O)C(=O)C(C(N)=O)=C(O)[C@@H](N(C)C)[C@@H]3[C@@H](O)[C@@H]21 [doxycycline]
MIC [1, 7]: > 32 µg/mL
MIC [2, 7]: > 32 µg/mL
MIC ([3]; isolate PA2013-LAV01): 32 µg/mL
MIC ([3]; isolate PA2013-LAV02): 32 µg/mL
MIC ([3]; isolate PA2013-LAV03): > 32 µg/mL
MIC ([3]; isolate PA2013-LAV04): 32 µg/mL
MIC ([3]; isolate PA2013-LAV05): > 32 µg/mL
MIC ([3]; isolate PA2013-LAV06): 32 µg/mL
MIC ([3]; isolate PA2013-LAV07): 32 µg/mL
MIC ([3]; isolate PA2013-LAV08): 32 µg/mL
MIC ([3]; isolate PA2013-LAV09): > 32 µg/mL
MIC ([3]; isolate PA2013-LAV10): 32 µg/mL
MIC ([3]; isolate PA2013-LAV11): 32 µg/mL
MIC ([3]; isolate PA2013-LAV12): 32 µg/mL
MIC ([3]; isolate PA2013-LAV13): 32 µg/mL
MIC ([3]; isolate PA2013-LAV14): > 32 µg/mL
MIC ([3]; isolate PA2013-LAV15): > 32 µg/mL
MIC ([3]; isolate PA2013-LAV16): 32 µg/mL
MIC ([3]; isolate PA2013-LAV17): 32 µg/mL
MIC ([3]; isolate PA2013-LAV18): > 32 µg/mL
MIC ([3]; isolate PA2013-LAV19): 32 µg/mL
MIC ([3]; isolate PA2013-LAV20): > 32 µg/mL
MIC (P. aeruginosa PA01): 32 µg/mL
MIC [4, 7]: 16 µg/mL
MIC (P. aeruginosa PA01 (wt); PA01, wt, mean of 3 independent experiments, read-out: Minimal Inhibitory Concentration): 32 µg/mL

O=C(O)c1cn(C2CC2)c2cc(N3CCNCC3)c(F)cc2c1=O [Ciprofloxacin, ciprofloxacin]
MIC [1]: 0.5 to 1 µg/mL
MIC [2]: 4 µg/mL
MIC [5]: 0.5 µg/mL

polymyxin-B
Minimal Inhibitory Concentration (P. aeruginosa PA01 (wt); PA01, wt): < 10 µM

NCC[C@H](O)C(=O)N[C@@H]1C[C@H](N)[C@@H](O[C@H]2O[C@H](CN)[C@@H](O)[C@H](O)[C@H]2O)[C@H](O)[C@H]1O[C@H]1O[C@H](CO)[C@@H](O)[C@H](N)[C@H]1O [Amikacin, amikacin]
MIC [1]: 4 µg/mL
MIC [2]: 4 µg/mL
MIC [5]: 32 µg/mL
MIC [4]: 1 µg/mL
MIC (P. aeruginosa PA01 (wt); [6]): 8 µg/mL

CC1(C)S[C@@H]2[C@H](NC(=O)[C@H](C(=O)O)c3ccsc3)C(=O)N2[C@H]1C(=O)O [Ticarcillin, ticarcillin]
MIC [1]: > 64 µg/mL
MIC [2]: 8 µg/mL
MIC [5]: 16 to 32 µg/mL
MIC [4]: 32 to 64 µg/mL
MIC (P. aeruginosa PA01 (wt); [6]): 32 to 64 µg/mL
